Assay results reported in US10821115B2, “Compounds that inhibit Mcl-1 protein” (priority 2017, dated 2020).
Where two headings read alike, the source gives them in different places.

Experiments:
[1] = biological target: recombinant human Mcl-1 (residues 171-327) / Bim interaction (Homo sapiens (Human), UniProt Q07820); test: biochemical; assay type: binding; conditions: read-out: Mcl-1 HTRF IC50
[2] = system: human multiple myeloma cell line, OPM-2; test: Cell viability assay (OPM-2 10 FBS), CellTiter-Glo; assay type: cell-based
Method in brief: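 3000 cells/well, RPMI 1640 + 10% FBS; serial compound dilutions, 16 h, 37 °C/5% CO2.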

[3] = TR-FRET, Mcl-1(171-327) / biotin-Bim (51-76)
[4] = read-out: OPM-2 10% FBS IC50 IP, OPM-2 cells, 10% FBS, 16 h, CellTiter-Glo
[5] = Homo sapiens, OPM-2, 16 h, read-out: OPM-2 10% FBS IC50 IP, OPM-2 cells, 10% FBS, 16 h, CellTiter-Glo
[6] = 0.1 nM Mcl-1(171-327), 0.05 nM biotin-Bim (51-76)
[7] = Homo sapiens, OPM-2, 16 h, read-out: OPM-2 10% FBS IC50 IP, OPM-2 cells, 10% FBS, 16 h incubation

Sequence of recombinant human Mcl-1 (residues 171-327) / Bim interaction (Q07820 171-327): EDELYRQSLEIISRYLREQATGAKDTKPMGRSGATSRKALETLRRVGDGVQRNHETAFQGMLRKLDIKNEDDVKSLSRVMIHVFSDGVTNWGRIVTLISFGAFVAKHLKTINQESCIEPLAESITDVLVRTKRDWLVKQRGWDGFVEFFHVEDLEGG

| SMILES | IC50 [1, 3] [nM] | IC50 [2, 5] [nM] | IC50 [1, 6] [nM] | IC50 [2, 7] [nM] | other results |
| --- | --- | --- | --- | --- | --- |
| C[C@@H]1[C@@H](C)CCC[C@@](O)(CCN2CC(F)(F)C2)[C@@H]2CC[C@H]2CN2C[C@@]3(CCCc4cc(Cl)ccc43)COc3ccc(cc32)C(=O)NS1(=O)=O [Example 100094, (1S,3′R,6′R,7′R,11′S,12′R)-6-chloro-7′-(2-(3,3-difluoro-1-azetidinyl)ethyl)-7′-hydroxy-11′,12′-dimethyl-3,4-dihydro-2H,15′H-spiro[naphthalene-1,22′-[20]oxa[13]thia[1,14]diazatetracyclo [14.7.2.0~3,6~.0~19,24~]pentacosa[16,18,24]trien]-15′-one 13′,13′-dioxide] | 3.83 | – | – | – | IC50 [2, 4]: 4380 nM |
| C[C@@H]1[C@@H](C)CCC[C@](O)(c2ccccn2)[C@@H]2CC[C@H]2CN2C[C@@]3(CCCc4cc(Cl)ccc43)COc3ccc(cc32)C(=O)NS1(=O)=O [Example 100469, (1S,3′R,6′R,7′R,11′S,12′R)-6-chloro-7′-hydroxy-11′,12′-dimethyl-7′-(2-pyridinyl)-3,4-dihydro-2H,15′H-spiro[naphthalene-1,22′-[20]oxa[13]thia[1,14]diazatetracyclo [14.7.2.0~3,6~.0~19,24~]pentacosa[16,18,24]trien]-15′-one 13′,13′-dioxide] | 0.085 | 325 | – | – | – |
| CCO[C@@]1(CN2CCC3(CC2)COC3)/C=C/C[C@H](C)[C@@H](C)S(=O)(=O)NC(=O)c2ccc3c(c2)N(C[C@@H]2CC[C@H]21)C[C@@]1(CCCc2cc(Cl)ccc21)CO3 [Example 109, (1S,3′R,6′R,7′S,8′E,11′S,12′R)-6-chloro-7′-ethoxy-11′,12′-dimethyl-7′-(2-oxa-7-azaspiro[3,5]non-7-ylmethyl)-3,4-dihydro-2H,15′H-spiro[naphthalene-1,22′-[20]oxa[13]thia[1,14]diazatetracyclo [14.7.2.0~3,6~.0~19,24~]pentacosa[8,16,18,24]tetraen]-15′-one 13′,13′-dioxide] | – | – | 1.04 | 916 | – |
| COCCOC[C@@]1(O)CCC[C@H](C)[C@@H](C)S(=O)(=O)NC(=O)c2ccc3c(c2)N(C[C@@H]2CC[C@H]21)C[C@@]1(CCCc2cc(Cl)ccc21)CO3 [Example 100193, (1S,3′R,6′R,7′R,11′S,12′R)-6-chloro-7′-hydroxy-7′-((2-methoxyethoxy)methyl)-11′,12′-dimethyl-3,4-dihydro-2H,15′H-spiro[naphthalene-1,22′-[20]oxa[13]thia[1,14]diazatetracyclo [14.7.2.0~3,6~.0~19,24~]pentacosa[16,18,24]trien]-15′-one 13′,13′-dioxide] | 0.856 | 1300 | – | – | – |
| C[C@@H]1[C@@H](C)C/C=C/[C@]2(CN(CC3CCOCC3)CCO2)[C@@H]2CC[C@H]2CN2C[C@@]3(CCCc4cc(Cl)ccc43)COc3ccc(cc32)C(=O)NS1(=O)=O [Example 135, (1S,3′R,6′R,7′R,8′E,11′S,12′R)-6-chloro-11′,12′-dimethyl-4″- (tetrahydro-2H-pyran-4-ylmethyl)-3,4-dihydro-2H,15′H-dispiro[naphthalene-1,22′-[20]oxa[13]thia[1,14]diazatetracyclo [14.7.2.0~3,6~.0~19,24~]pentacosa[8,16,18,24]tetraene-7′,2″-[1,4]oxazinan]-15′-one 13′,13′-dioxide] | – | – | 8.18 | > 33300 | – |
| CO[C@@]1(CCN2CCN(C)C(=O)C2)/C=C/C[C@H](C)[C@@H](C)S(=O)(=O)NC(=O)c2ccc3c(c2)N(C[C@@H]2CC[C@H]21)C[C@@]1(CCCc2cc(Cl)ccc21)CO3 [Example 100430, (1S,3′R,6′R,7′S,8′E,11′S,12′R)-6-chloro-7′-methoxy-11′,12′-dimethyl-7′-(2-(4-methyl-3-oxo-1-piperazinyl)ethyl)-3,4-dihydro-2H,15′H-spiro[naphthalene-1,22′-[20]oxa[13]thia[1,14]diazatetracyclo [14.7.2.0~3,6~.0~19,24~]pentacosa[8,16,18,24]tetraen]-15′-one 13′,13′-dioxide] | 0.057 | 358 | – | – | – |
| C[C@@H]1CS(=O)(=O)NC(=O)c2ccc3c(c2)N(C[C@@H]2CC[C@H]2[C@@](O)(CN2CCN(C4COC4)CC2)/C=C/[C@@H]1C)C[C@@]1(CCCc2cc(Cl)ccc21)CO3 [Example 165, (1S,3′R,6′R,7′R,8′E,10′S,11′S)-6-chloro-7′-hydroxy-10′,11′-dimethyl-7′-((4-(3-oxetanyl)-1-piperazinyl)methyl)-3,4-dihydro-2H,15′H-spiro[naphthalene-1,22′-[20]oxa[13]thia[1,14]diazatetracyclo [14.7.2.0~3,6~.0~19,24~]pentacosa[8,16,18,24]tetraen]-15′-one 13′,13′-dioxide] | – | – | 0.19 | 182 | – |
| CO[C@@]1(CN2CCN(C3CS(=O)(=O)C3)CC2)/C=C/C[C@H](C)[C@@H](C)S(=O)(=O)NC(=O)c2ccc3c(c2)N(C[C@@H]2CC[C@H]21)C[C@@]1(CCCc2cc(Cl)ccc21)CO3 [Example 339, (1S,3′R,6′R,7′S,8′E,11′S,12′R)-6-chloro-7′-((4-(1,1-dioxido-3-thietanyl)-1-piperazinyl)methyl)-7′-methoxy-11′,12′-dimethyl-3,4-dihydro-2H,15′H-spiro[naphthalene-1,22′-[20]oxa[13]thia[1,14]diazatetracyclo [14.7.2.0~3,6~.0~19,24~]pentacosa[8,16,18,24]tetraen]-15′-one 13′,13′-dioxide] | – | – | 0.117 | 153 | – |
| CO[C@@]1(CN2CCN(c3ccncc3)CC2)/C=C/C[C@H](C)[C@@H](C)S(=O)(=O)NC(=O)c2ccc3c(c2)N(C[C@@H]2CC[C@H]21)C[C@@]1(CCCc2cc(Cl)ccc21)CO3 [Example 254, (1S,3′R,6′R,7′S,8′E,11′S,12′R)-6-chloro-7′-methoxy-11′,12′-dimethyl-7′-((4-(4-pyridinyl)-1-piperazinyl)methyl)-3,4-dihydro-2H,15′H-spiro[naphthalene-1,22′-[20]oxa[13]thia[1,14]diazatetracyclo [14.7.2.0~3,6~.0~19,24~]pentacosa[8,16,18,24]tetraen]-15′-one 13′,13′-dioxide] | – | – | 1.2 | 544 | – |
| C[C@@H]1[C@@H](C)CCC[C@](O)(c2ncccn2)[C@@H]2CC[C@H]2CN2C[C@@]3(CCCc4cc(Cl)ccc43)COc3ccc(cc32)C(=O)NS1(=O)=O [Example 100279, (1S,3′R,6′R,7′R,11′S,12′R)-6-chloro-7′-hydroxy-11′,12′-dimethyl-7′-(2-pyrimidinyl)-3,4-dihydro-2H,15′H-spiro[naphthalene-1,22′-[20]oxa[13]thia[1,14]diazatetracyclo [14.7.2.0~3,6~.0~19,24~]pentacosa[16,18,24]trien]-15′-one 13′,13′-dioxide] | – | – | – | – | IC50 [1]: 0.777 nM; IC50 [2, 4]: 3250 nM |
| COC(=O)C[C@]1(O)/C=C/C[C@H](C)[C@@H](C)S(=O)(=O)NC(=O)c2ccc3c(c2)N(C[C@@H]2CC[C@H]21)C[C@@]1(CCCc2cc(Cl)ccc21)CO3 [Example 100288, methyl ((1S,3′R,6′R,7′S,8′E,11′S,12′R)-6-chloro-7′-hydroxy-11′,12′-dimethyl-13′,13′-dioxido-15′-oxo-3,4-dihydro-2H-spiro[naphthalene-1,22′-[20]oxa[13]thia[1,14]diazatetracyclo [14.7.2.0~3,6~.0~19,24~]pentacosa[8,16,18,24]tetraen]-7′-yl)acetate] | 0.103 | 89 | – | – | – |
